Laboratory results: US20110166078A1, “OLIGOSACCHARIDE COMPOUNDS FOR USE IN MOBILISING STEM CELLS” (ENDOTIS PHARMA, priority 2008, published 2011)

How the values were obtained:
[1] = test system: FGF-2-induced NHDF (Normal Human Dermal Fibroblast) cell proliferation; assay: FGF-2-induced NHDF proliferation assay; format: cell-based; conditions: compound 0.1 to 30 μM
Procedure: The activities of the compounds of the present invention were tested using a proliferation assay, such as the one described by N. Ali et al., J Pharmacol Sci, 2005, 98, 130-141. A defined number of cells is seeded in each well of a culture plate. In order to stimulate cell proliferation, a growth factor is added in some wells, while others remain unstimulated (basal proliferation conditions). To monitor the effects of substances of interest (oligosaccharides compounds according to the present invention) on basal and growth factor-induced cell proliferation, substances of interest are added at different concentrations (i.e. 0.1, 0.3, 1, 3, 10 or 30 μM) in presence or absence of the growth factor, respectively. After an incubation period of 24 hours, the total number of cells is estimated in all samples (generally through an indirect method, such as incorporation of radioactivity into the newly synthesised DNA or colorimetric assays based on cellular enzyme activities or metabolite production). The total number of cells for the control sample in which no substance of interest nor growth factor have been added is set to 1. The total number of cells in all the other samples is compared to this value in order to obtain the relative proliferation index.
Typically, cells are seeded in 48 or 96-well plates. After 2 h (i.e. the time required for cells to adhere to the support) the normal culture media is replaced by a minimal essential culture media in which cells are grown for 24 h (starvation period). This step is used to reduce cell growth (cell metabolism is slowed down in order to better visualise the growth factor stimulation effect) before adding an angiogenic protein, such as a growth factor i.e. FGF-2 or PDGF-β. No growth factor is added in basal proliferation conditions (independently of the presence or absence of the oligosaccharide of the present invention). […]
Following addition of the angiogenic protein (growth factor) over a 24 h stimulation period, a commercial reagent containing a substrate for a cellular enzyme is added and incubated for couple of hours. The degradation of the substrate by the enzyme leads to the production of a coloured product which is titrated by absorbance measurement. […]
In the following experiments the effects of compounds 240 and 241 (concentrations from 0.1 to 30 μM) were evaluated on FGF-2-induced NHDF (Normal Human Dermal Fibroblast) cell proliferation. […]

[2] = test system: hematopoietic stem cells (LSK cells) in blood; assay: Hematopoietic stem cell mobilisation, sequential G-CSF, AMD3100 and compound 240; format: in vivo; conditions: compound 240 i.v. 15 mg/kg 30 min after AMD3100 s.c. 5 mg/kg, after G-CSF 2.5 μg s.c.; C57BL/6 mice; FIG. 5
Procedure: During cancer treatment, patients receive injections of a cytokine (G-CSF) mobilising stem cells. These stem cells are then collected from the peripheral blood using an apheresis machine. Apheresis is usually performed for several days until enough stem cells have been collected to support treatment with high-dose chemotherapy and/or radiotherapy. In the experiments of the present invention, different doses (5, 15 and 30 mg/kg body weight (bw)) and administration routes (intraperitoneal, intravenous and subcutaneous) were tested along time course experiments in mice (30 min, 1 h, 3 h and 5 h).
C57BL/6 mice (8-10 weeks old, obtained from Jackson Laboratory, USA) were housed 15 days in the CEA/DSV/iRCM animal facilities. Animal care was in accordance with French Government procedures (Services Veterinaires de la Sante et de la Production Animale, Ministere de l'Agriculture, France).
i) intravenously: Anesthetized mice were placed on their left side. Injection of 100 μl of compound was performed with insulin syringe into the retro-orbital sinus of the right eye of mice. […]
Two months aged-C57BL/6 mice were injected s.c. with 2.5 μg of G-CSF twice a day for 2 days. […] White blood cells were counted and labeled with lineage-PE-Cy7 (L), Sca-PE (S), and cKit-APC (K) antibodies for data acquisition by cytometry. […]

C#CCCCOC1OC(COS(=O)(=O)[O-])C(OC2OC(C(=O)[O-])C(OC3OC(COS(=O)(=O)[O-])C(OC4OC(C(=O)[O-])C(OC5OC(COS(=O)(=O)[O-])C(OC6OC(C(=O)[O-])C(OC7OC(COS(=O)(=O)[O-])C(OC8OC(C(=O)[O-])C(OCc9ccccc9)C(OCc9ccccc9)C8OS(=O)(=O)[O-])C(OCc8ccccc8)C7NS(=O)(=O)[O-])C(OCc7ccccc7)C6OS(=O)(=O)[O-])C(OCc6ccccc6)C5NS(=O)(=O)[O-])C(OCc5ccccc5)C4OS(=O)(=O)[O-])C(OCc4ccccc4)C3NS(=O)(=O)[O-])C(OCc3ccccc3)C2OS(=O)(=O)[O-])C(OCc2ccccc2)C1NS(=O)(=O)[O-].[Na+].[Na+].[Na+].[Na+].[Na+].[Na+].[Na+].[Na+].[Na+].[Na+].[Na+].[Na+].[Na+].[Na+].[Na+].[Na+] (stereo not drawn) [Compound 240]
inhibition of FGF-2-induced fibroblast proliferation ([1]; FGF-2 5 ng/ml, FIGS. 6-7): inhibit FGF-2-induced fibroblast proliferation (starting in the micromolar range) | basal NHDF proliferation ([1]; control conditions, no growth factor): did not seem to be affected | HSCs mobilized, times more than with G-CSF+AMD3100 combination [2]: About 3 times
